Values belong to the compound of their own block, whether it stands above or below them.
Key:
[1] = Volatility of perfuming compounds (Tables 4 to 10), with top/middle/bottom note type; format: physicochemical
In short: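 Note type follows from air volatility (μg/l): bottom 49–0.1, middle 99–50, top 70,000–100. Compounds are listed within watery, green, fruity, citrus, sweet, gourmand and woody families.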

[2] = Odor threshold and odor value of perfuming compounds (Tables 4 to 10)
[3] = Table 6, perfuming compounds having a fruity note
[4] = Table 6, perfuming compounds having a fruity note, note type by volatility
[5] = Table 8, perfuming compounds having a sweet note
[6] = Table 8, perfuming compounds having a sweet note, note type by volatility
[7] = note type (Top/Middle/Bottom) by volatility, perfuming compounds having a green note
[8] = perfuming compounds having a green note
[9] = Table 4, watery note, top, middle or bottom note
[10] = Table 4, watery note, equals volatility divided by odor threshold
[11] = Table 7, citrus note, top, middle or bottom note
[12] = Table 7, citrus note, equals volatility divided by odor threshold
[13] = Table 10, perfuming compounds having a woody note, note type by volatility

SMILES: C=CCOC(=O)CCC1CCCCC1 [ALLYL 3-CYCLOHEXYLPROPANOATE]
Volatility [1, 3]: 75.80 μg/l air
Type [1, 4]: Middle
Volatility [1, 5]: 75.80 μg/l air
Type [1, 6]: Middle
Volatility ([1]; Table 9, gourmand note): 75.80 μg/l air
Type ([1]; Table 9, perfuming compounds having a gourmand note, note type by volatility): Middle
Type [1, 7]: Middle
Volatility (μg/l air) [1, 8]: 75.80 μg/l air
Odor Threshold [2, 3]: 7.96E−03 μg/l air
Odor Value [2, 3]: 9.53E+03
Odor Threshold [2, 5]: 7.96E−03 μg/l air
Odor Value [2, 5]: 9.53E+03
Odor Threshold ([2]; Table 9, gourmand note): 7.96E−03 μg/l air
Odor Threshold (μg/l air) [2, 8]: 7.96E−03 μg/l air

SMILES: CC(=O)OCCC1CCCCC1 [2-CYCLOHEXYL ETHYL ACETATE]
Volatility [1, 3]: 489.45 μg/l air
Type [1, 4]: TOP (perfuming compounds having a volatility ranging from 70,000 to 100 μg/l in air are referred to as “top notes”)
Volatility [1, 5]: 489.45 μg/l air
Type [1, 6]: Top
Odor Threshold [2, 5]: 4.49E−02 μg/l air
Odor Value [2, 5]: 1.09E+04

SMILES: CC(=O)/C=C/C1C(C)CCC(C)C1(C)C (racemic)
Type [1, 13]: Bottom
Volatility ([1]; Table 10, woody note): 20.50 μg/l air
Odor Threshold ([2]; Table 10, woody note): 5.14E−04 μg/l air

SMILES: CC(C)=CCCC1=CCC(C)(C=O)CC1 (racemic)
Volatility (μg/l air) ([1]; Table 4, watery note): 26.54 μg/l air
Type [1, 9]: bottom (perfuming compounds having a volatility ranging from 49 to 0.1 μg/l in air are referred to as “bottom notes”)
Odor Threshold (μg/l air) ([2]; Table 4, watery note): 2.72E−02 μg/l air
Odor Value [2, 10]: 9.76E+02

SMILES: CC(=O)O[C@@H]1C(C)(C)CCC[C@]12CC=C(C)C[C@H]2C (racemic)
Type [1, 13]: Bottom
Volatility ([1]; Table 10, woody note): 8.25 μg/l air
Odor Threshold ([2]; Table 10, woody note): 3.79E−03 μg/l air

SMILES: CC(=O)OC(C)c1ccccc1 (racemic) [(+−)-1-PHENYLETHYL ACETATE]
Volatility [1, 3]: 387.96 μg/l air
Type [1, 4]: TOP (perfuming compounds having a volatility ranging from 70,000 to 100 μg/l in air are referred to as “top notes”)
Volatility (μg/l air) ([1]; Table 7, citrus note): 387.96 μg/l air
Type [1, 11]: Top
Odor Threshold (μg/l air) ([2]; Table 7, citrus note): 4.43E−02 μg/l air
Odor Value [2, 12]: 8.75E+03

More lines, main results first:

Type [1, 7]: Top
Volatility (μg/l air) [1, 8]: 472.01 μg/l air
SMILES: CCCCCC#CC(=O)OC [METHYL 2-OCTYNOATE]
Odor Threshold (μg/l air) [2, 8]: 8.31E−04 μg/l air

Volatility (μg/l air) ([1]; Table 4, watery note): 144.79 μg/l air
SMILES: CCCCCCCCCCCC=O [DODECANAL]
Type [1, 9]: TOP (perfuming compounds having a volatility ranging from 70,000 to 100 μg/l in air are referred to as “top notes”)
Odor Threshold (μg/l air) ([2]; Table 4, watery note): 9.90E−04 μg/l air
Odor Value [2, 10]: 1.46E+05

Volatility [1, 3]: 142519.74 μg/l air
Type [1, 7]: Top
Volatility (μg/l air) [1, 8]: 142519.74 μg/l air
SMILES: CCCC(=O)OCC [ETHYL BUTANOATE]
Type [1, 4]: TOP (perfuming compounds having a volatility ranging from 70,000 to 100 μg/l in air are referred to as “top notes”)
Odor Threshold (μg/l air) [2, 8]: 3.68E−04 μg/l air

Volatility (μg/l air) ([1]; Table 4, watery note): 297.74 μg/l air
SMILES: CCCCCCCCC(C)C=O (racemic) [(+−)-2-methyldecanal″]
Type [1, 9]: TOP (perfuming compounds having a volatility ranging from 70,000 to 100 μg/l in air are referred to as “top notes”)
Odor Threshold (μg/l air) ([2]; Table 4, watery note): 9.00E−04 μg/l air
Odor Value [2, 10]: 3.31E+05

Volatility [1, 3]: 11.05 μg/l air
Type [1, 4]: Bottom
Volatility (μg/l air) ([1]; Table 7, citrus note): 11.05 μg/l air
Type [1, 11]: Bottom
Type [1, 7]: Bottom
Volatility (μg/l air) [1, 8]: 11.05 μg/l air
SMILES: CC/C=C\CCOC(=O)c1ccccc1 [(3Z)-3-hexen-1-yl benzoate]
Odor Threshold [2, 3]: 4.37E−02 μg/l air
Odor Value [2, 3]: 2.53E+02
Odor Threshold (μg/l air) ([2]; Table 7, citrus note): 4.37E−02 μg/l air
Odor Value [2, 12]: 2.53E+02
Odor Threshold (μg/l air) [2, 8]: 4.37E−02 μg/l air

Volatility (μg/l air) ([1]; Table 7, citrus note): 995.16 μg/l air
Type [1, 11]: Top
SMILES: CCCOC(=O)[C@H](C)OC(C)(C)CC [(−)-PROPYL (S)-2-(1,1-DIMETHYLPROPOXY)PROPANOATE]
Odor Threshold (μg/l air) ([2]; Table 7, citrus note): 4.98E−01 μg/l air
Odor Value [2, 12]: 2.00E+03

Volatility [1, 3]: 421.09 μg/l air
Type [1, 7]: Top
Volatility (μg/l air) [1, 8]: 421.09 μg/l air
SMILES: CCCC(S)CCOC(C)=O (racemic) [(+−)-3-mercaptohexyl acetate]
Type [1, 4]: TOP (perfuming compounds having a volatility ranging from 70,000 to 100 μg/l in air are referred to as “top notes”)
Odor Threshold (μg/l air) [2, 8]: 2.72E−06 μg/l air

Type [1, 7]: Top
Volatility (μg/l air) [1, 8]: 687.75 μg/l air
SMILES: CCCC(=NO)C(C)C [2-METHYL-3-HEXANONE OXIME]
Odor Threshold (μg/l air) [2, 8]: 4.81E−04 μg/l air

Volatility [1, 3]: 113.60 μg/l air
Type [1, 7]: Top
Volatility (μg/l air) [1, 8]: 113.60 μg/l air
SMILES: CCC(=O)OCc1ccccc1 [BENZYL PROPANOATE]
Type [1, 4]: TOP (perfuming compounds having a volatility ranging from 70,000 to 100 μg/l in air are referred to as “top notes”)
Odor Threshold [2, 3]: 2.81E−02 μg/l air
Odor Value [2, 3]: 4.04E+03
Odor Threshold (μg/l air) [2, 8]: 2.81E−02 μg/l air
